The experiment concerns the target Fatty acid synthase (Gallus gallus, UniProt P12276). Briefly: FAS Inhibitory Assay. As to conditions: pH 7; 37 °C. As for the experimental part: To each microtube (final volume: 100 μL), FAS was added (20-30 μg protein) in a buffer containing 100 mM potassium phosphate (pH 7.0), 2.5 mM dithiothreitol and 2.0 mM EDTA with or without test compounds. The mixtures were preincubated at 37°C for 60 min and the reaction was started by the addition of a substrate mixture containing 0.25 mM NADPH, 0.4 nmol of malonyl CoA and 0.02 μCi of [3H] acetyl CoA. Following incubation at 37°C for 10 min, the reaction was terminated with 60% HClO4. Fatty acids were extracted with 1 mL of hexane and incorporation of radioactivity into the fatty acids was assessed by scintillation counting [Na et al., Bioorg. Med. Chem. Lett., 16:4738-4742].
Fatty acid synthase, sequence (P12276 whole entry): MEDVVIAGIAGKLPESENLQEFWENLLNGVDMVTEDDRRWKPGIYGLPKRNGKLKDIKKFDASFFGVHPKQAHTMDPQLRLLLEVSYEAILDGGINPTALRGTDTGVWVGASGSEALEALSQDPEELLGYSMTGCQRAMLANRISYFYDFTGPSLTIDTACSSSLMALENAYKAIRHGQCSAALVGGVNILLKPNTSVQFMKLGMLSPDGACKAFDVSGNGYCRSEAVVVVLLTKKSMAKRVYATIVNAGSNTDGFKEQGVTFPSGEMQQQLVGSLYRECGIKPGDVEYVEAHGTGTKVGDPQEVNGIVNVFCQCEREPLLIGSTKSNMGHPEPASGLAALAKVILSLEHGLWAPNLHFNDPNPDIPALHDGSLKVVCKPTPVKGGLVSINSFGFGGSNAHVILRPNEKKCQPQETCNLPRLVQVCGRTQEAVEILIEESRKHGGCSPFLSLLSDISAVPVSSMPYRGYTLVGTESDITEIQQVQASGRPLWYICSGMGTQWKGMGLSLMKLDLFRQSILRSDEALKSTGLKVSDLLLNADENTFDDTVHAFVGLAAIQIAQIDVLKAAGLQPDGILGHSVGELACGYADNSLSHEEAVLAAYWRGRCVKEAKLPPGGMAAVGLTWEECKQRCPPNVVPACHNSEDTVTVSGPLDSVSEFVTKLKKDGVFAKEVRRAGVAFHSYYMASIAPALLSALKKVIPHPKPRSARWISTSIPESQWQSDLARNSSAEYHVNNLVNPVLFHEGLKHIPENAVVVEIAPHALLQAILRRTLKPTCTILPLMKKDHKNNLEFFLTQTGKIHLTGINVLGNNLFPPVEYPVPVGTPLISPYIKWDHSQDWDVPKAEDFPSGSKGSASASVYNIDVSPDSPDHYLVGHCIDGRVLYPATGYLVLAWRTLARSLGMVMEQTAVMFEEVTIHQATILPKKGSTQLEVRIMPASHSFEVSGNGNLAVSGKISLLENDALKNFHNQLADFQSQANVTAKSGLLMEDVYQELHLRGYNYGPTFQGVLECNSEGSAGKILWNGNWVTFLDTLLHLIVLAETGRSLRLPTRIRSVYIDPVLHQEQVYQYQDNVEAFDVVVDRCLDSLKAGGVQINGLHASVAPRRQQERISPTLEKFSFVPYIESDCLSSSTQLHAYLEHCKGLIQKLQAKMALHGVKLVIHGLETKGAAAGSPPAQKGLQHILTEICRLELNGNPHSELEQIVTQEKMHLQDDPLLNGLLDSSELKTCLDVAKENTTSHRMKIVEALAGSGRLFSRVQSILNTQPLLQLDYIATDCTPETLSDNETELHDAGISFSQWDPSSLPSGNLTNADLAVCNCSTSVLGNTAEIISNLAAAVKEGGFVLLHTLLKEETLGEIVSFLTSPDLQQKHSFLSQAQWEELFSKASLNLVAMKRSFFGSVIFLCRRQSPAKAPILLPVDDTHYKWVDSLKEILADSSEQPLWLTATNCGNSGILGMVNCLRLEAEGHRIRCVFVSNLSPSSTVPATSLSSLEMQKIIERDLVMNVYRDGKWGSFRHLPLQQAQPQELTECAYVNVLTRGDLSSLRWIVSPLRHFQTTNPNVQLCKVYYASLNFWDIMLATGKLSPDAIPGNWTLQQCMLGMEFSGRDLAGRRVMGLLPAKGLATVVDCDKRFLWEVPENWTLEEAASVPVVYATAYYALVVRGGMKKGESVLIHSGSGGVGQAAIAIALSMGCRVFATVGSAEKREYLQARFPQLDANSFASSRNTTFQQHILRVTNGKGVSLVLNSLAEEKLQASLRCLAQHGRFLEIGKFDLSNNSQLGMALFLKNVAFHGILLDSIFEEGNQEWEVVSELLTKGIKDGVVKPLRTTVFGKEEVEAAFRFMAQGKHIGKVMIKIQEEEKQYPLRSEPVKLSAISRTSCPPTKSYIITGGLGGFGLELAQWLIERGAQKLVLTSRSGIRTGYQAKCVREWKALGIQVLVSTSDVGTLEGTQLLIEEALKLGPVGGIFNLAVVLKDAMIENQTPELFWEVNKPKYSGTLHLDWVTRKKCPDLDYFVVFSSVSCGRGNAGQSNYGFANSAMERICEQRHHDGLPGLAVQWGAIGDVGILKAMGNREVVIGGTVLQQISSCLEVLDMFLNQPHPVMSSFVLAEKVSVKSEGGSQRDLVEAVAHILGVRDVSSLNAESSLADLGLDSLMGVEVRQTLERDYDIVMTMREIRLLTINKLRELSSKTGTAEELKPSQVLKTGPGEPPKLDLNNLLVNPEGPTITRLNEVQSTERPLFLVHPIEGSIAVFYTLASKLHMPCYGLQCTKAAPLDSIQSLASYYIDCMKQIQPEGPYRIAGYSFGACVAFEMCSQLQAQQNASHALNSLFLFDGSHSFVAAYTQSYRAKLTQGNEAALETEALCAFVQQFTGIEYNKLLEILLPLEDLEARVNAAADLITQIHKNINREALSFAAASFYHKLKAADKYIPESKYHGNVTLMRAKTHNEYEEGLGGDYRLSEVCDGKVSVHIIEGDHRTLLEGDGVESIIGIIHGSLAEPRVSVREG
As for `C/C=C/C/C=C/CCC(=O)[C@H]1O[C@H]1C(N)=O`, half-maximal inhibition (IC50) required 13 µM. In the case of `O=c1cc(-c2ccc(O)c(O)c2)oc2cc(O)cc(O)c12` [2-(3,4-dihydroxyphenyl)-5,7-dihydroxy-4H-chromen-4-one], the IC50 (as a rule, the concentration needed to halve the response being measured) turned out to be 62.5 µM. As to `CCCCCC/C=C\CCCCCCCCCc1cccc(O)c1C(=O)O` [6-[10'(Z)-heptade-cenyljsalicylic acid], inhibition was half-maximal at 10.5 µM (IC50). With `CCCCCC/C=C\CCCCCCCc1cccc(O)c1C(=O)O` [6-{8(Z)-pentadecenyl}salicylic acid] the figure was 17.1 µM. Consider `CCCCC/C=C/C/C=C/CCCCCCCc1cccc(O)c1C(=O)O` [Ginkgolic acid C17:2 (2)], for which the IC50 worked out at 9.2 µM.

Source of the values: BindingDB's records for doi:10.3109/14756366.2012.658786 (Yeungnam University, 2013).
